The test system of one assay is RKN cells. The assay is described as follows: RKN cell profiling assay (cell viability, CellTiter-Glo). The format is cell-based. The settings on record: 96 h, 96 h exposure, read-out: Cell Killing EC50. Here is the method:
RKN cells were suspended in assay medium (F-12 medium supplemented with 10% FBS and penicillin/streptomycin) and seeded at 1,000 cells per well (30 μL total volume) in opaque white 384-well plates (Corning). Cells were allowed to adhere for 24 h at 37° C. (95% humidity, 5% CO2) and then exposed to compounds disclosed herein for 72 h, or in the present case, 96 h. DMSO stock solutions of compounds were added to cells using a D300e Digital Dispenser (Tecan). The final DMSO concentration in each well was normalized to 0.5% (v/v) after compound treatment. Cell viability was measured using CellTiter-Glo (Promega). After incubation for 15 min at room temperature, luminescence was measured using a PHERAstar FSX microplate reader (BMG Labtech). Ferroptosis rescue experiments were performed as described previously using cells treated with ferrostatin-1 (fer-1, 1.5 μM) when seeding assay plates. Dose-response data were analyzed to determine EC50 values with GraphPad Prism 9 software using a four-parameter logistic equation or CDD Vault (Collaborative Drug Discovery) using the Levenberg-Marquardt algorithm.
(In ATP-based viability assays light output follows the ATP content of the culture.)
On to `CC(C)(C)CCS(=N)(=O)CC[C@H](N)C(=O)Nc1nccs1` (some centres unmarked) [Compound 121], for which the EC50 was no less than 1 mM.

The same assay, now with this note: cell viability, read-out: Cell Killing EC50.
As to `N=S(=O)(CCC(c1ccc(-c2ccc(Br)cc2)cc1)C(F)(F)F)CC[C@H](N)C(=O)O` (some centres unmarked) [Compound 226], the EC50 is less than 1 mM.

Consider `Cc1ccc(-c2ccc(C(CCS(=N)(=O)CC[C@H](N)C(=O)O)C(F)(F)F)cc2)c(C)c1` (some centres unmarked) [Compound 280], for which the half-maximal effective concentration (EC50) was less than 1 mM. On the same count and under the same terms, the same measure for `N=S(=O)(CCC(c1ccc(-c2ccccc2)cc1Cl)C(F)(F)F)CC[C@H](N)C(=O)O` (some centres unmarked) [Compound 315]: no less than 1 mM; for `CC(C)c1ccccc1-c1ccc(C(CCS(=N)(=O)CC[C@H](N)C(=O)O)C(F)(F)F)cc1` (some centres unmarked) [Compound 266]: less than 1 mM; for `N=S(=O)(CCC(c1ccc(-c2ccc(C(F)F)cc2)cc1)C(F)(F)F)CC[C@H](N)C(=O)O` (some centres unmarked) [Compound 231]: less than 1 mM. Same read-out and setting: in the case of `N=S(=O)(CCC(c1ccc(-c2ccccc2F)cc1)C(F)(F)F)CC[C@H](N)C(=O)O` (some centres unmarked) [Compound 217] it was less than 1 mM; in that of `Cn1ncc(-c2ccc(C(O)(CCS(=N)(=O)CC[C@H](N)C(=O)O)C(F)(F)F)cc2)cc1=O` (some centres unmarked) [Compound 433], no less than 1 mM.

Turning to `N=S(=O)(CCC(c1ccc(-c2cnc3[nH]ccc3c2)cc1)C(F)(F)F)CC[C@H](N)C(=O)O` (some centres unmarked) [Compound 253], the EC50 is less than 1 mM. The same measure, in the same setting: in the case of `Cc1ccc(-c2cccc(C(CCS(=N)(=O)CC[C@H](N)C(=O)O)C(F)(F)F)c2)cc1F` (some centres unmarked) [Compound 290] it was no less than 1 mM.

For the compound `N=S(=O)(CCC(c1ccc(-c2ccc(Cl)s2)cc1)C(F)(F)F)CC[C@H](N)C(=O)O` (some centres unmarked) [Compound 256], the EC50 is less than 1 mM. `N=S(=O)(CCC(c1ccc(-c2ccc(Cl)cc2)cc1)C(F)(F)F)CC[C@H](N)C(=O)O` (some centres unmarked) [Compound 277]: the EC50 is less than 1 mM.

`N=S(=O)(CCC(c1ccc(Oc2ccccc2)cc1)C(F)(F)F)CC[C@H](N)C(=O)O` (some centres unmarked) [Compound 316]: the EC50 was less than 1 mM. As for `Cc1ccc(-c2ccc(C(O)(CCS(=N)(=O)CC[C@H](N)C(=O)O)C(F)(F)F)cc2)c(F)c1` (some centres unmarked) [Compound 437], the EC50 was less than 1 mM. On the same count and under the same terms, in the case of `N=S(=O)(CCC(c1ccc(-c2ccccc2Cl)cc1)C(F)(F)F)CC[C@H](N)C(=O)O` (single isomer, unassigned) [Compound 219] it was no less than 1 mM; in that of `N=S(=O)(CCC(c1ccc(-c2ccc(O)cc2Cl)cc1)C(F)(F)F)CC[C@H](N)C(=O)O` (some centres unmarked) [Compound 270], less than 1 mM. For the compound `Cc1cc(C(O)(CCS(=N)(=O)CC[C@H](N)C(=O)O)C(F)(F)F)ccc1-c1ccc(Cl)cc1Cl` (some centres unmarked) [Compound 443], the concentration for a half-maximal effect (EC50) is less than 1 mM. Take `N=S(=O)(CCC(c1ccc(-c2cnc3[nH]ncc3c2)cc1)C(F)(F)F)CC[C@H](N)C(=O)O` (some centres unmarked) [Compound 254]: the EC50 was no less than 1 mM. On the same count and under the same terms, the same measure for `N=S(=O)(CCC(c1cccc(C#Cc2ccccc2)c1)C(F)(F)F)CC[C@H](N)C(=O)O` (some centres unmarked) [Compound 273]: no less than 1 mM; for `N=S(=O)(CC[C@H](N)C(=O)O)CCC(O)(c1ccc(-c2ccc(Cl)cc2Cl)cn1)C(F)(F)F` (some centres unmarked) [Compound 466]: less than 1 mM; for `N=S(=O)(CCC(c1ccc(C2=CCNCC2)cc1)C(F)(F)F)CC[C@H](N)C(=O)O` (some centres unmarked) [Compound 259]: no less than 1 mM. As to `CC(C)(O)c1ccc(C(CCS(=N)(=O)CC[C@H](N)C(=O)O)C(F)(F)F)cc1` (some centres unmarked) [Compound 263], the EC50 is no less than 1 mM.

Consider `Cc1ccc(-c2cccc(C(CCS(=N)(=O)CC[C@H](N)C(=O)O)C(F)(F)F)c2)c(F)c1` (some centres unmarked) [Compound 284], for which the EC50 is no less than 1 mM. `Cc1nc(Cl)ccc1-c1ccc(C(CCS(=N)(=O)CC[C@H](N)C(=O)O)C(F)(F)F)cc1` (some centres unmarked) [Compound 248]: the EC50 is less than 1 mM.

Turning to `Cc1cc(Cl)ccc1-c1ccc(C(O)(CCS(=N)(=O)CC[C@H](N)C(=O)O)C(F)(F)F)cc1` (some centres unmarked) [Compound 430], the EC50 was less than 1 mM.

Turning to `Cc1ccccc1-c1ccc(C(O)(CCS(=N)(=O)CC[C@H](N)C(=O)O)C(F)(F)F)nc1` (some centres unmarked) [Compound 471], the EC50 was less than 1 mM.

A word on the EC50: it is the concentration that produces a half-maximal response.

These data come from patent publication US20260034094A1, “COMPOSITIONS AND METHODS FOR INDUCING FERROPTOSIS” (Kojin Therapeutics, Inc., priority 2022, published 2026).
